According to US9073863B2, “Cyanoquinoline compounds having activity in correcting mutant-CFTR processing and increasing ion transport and uses thereof” (The Regents of the University of California, priority 2011, dated 2015):

Tests used:
Assay type in all cases: cell-based
ΔF508-CFTR [1] = target: T1, ΔF508-CFTR (Homo sapiens, UniProt P13569, DEL508-508); test: Corrector assay, YFP fluorescence plate reader iodide influx in ΔF508-CFTR expressing FRT cells
T1 construct: expressed in transfected cells; host or cells: Fischer rat thyroid (FRT) epithelial cells, stably transfected
T1 sequence (P13569 with tags, fused parts or gaps DEL508-508): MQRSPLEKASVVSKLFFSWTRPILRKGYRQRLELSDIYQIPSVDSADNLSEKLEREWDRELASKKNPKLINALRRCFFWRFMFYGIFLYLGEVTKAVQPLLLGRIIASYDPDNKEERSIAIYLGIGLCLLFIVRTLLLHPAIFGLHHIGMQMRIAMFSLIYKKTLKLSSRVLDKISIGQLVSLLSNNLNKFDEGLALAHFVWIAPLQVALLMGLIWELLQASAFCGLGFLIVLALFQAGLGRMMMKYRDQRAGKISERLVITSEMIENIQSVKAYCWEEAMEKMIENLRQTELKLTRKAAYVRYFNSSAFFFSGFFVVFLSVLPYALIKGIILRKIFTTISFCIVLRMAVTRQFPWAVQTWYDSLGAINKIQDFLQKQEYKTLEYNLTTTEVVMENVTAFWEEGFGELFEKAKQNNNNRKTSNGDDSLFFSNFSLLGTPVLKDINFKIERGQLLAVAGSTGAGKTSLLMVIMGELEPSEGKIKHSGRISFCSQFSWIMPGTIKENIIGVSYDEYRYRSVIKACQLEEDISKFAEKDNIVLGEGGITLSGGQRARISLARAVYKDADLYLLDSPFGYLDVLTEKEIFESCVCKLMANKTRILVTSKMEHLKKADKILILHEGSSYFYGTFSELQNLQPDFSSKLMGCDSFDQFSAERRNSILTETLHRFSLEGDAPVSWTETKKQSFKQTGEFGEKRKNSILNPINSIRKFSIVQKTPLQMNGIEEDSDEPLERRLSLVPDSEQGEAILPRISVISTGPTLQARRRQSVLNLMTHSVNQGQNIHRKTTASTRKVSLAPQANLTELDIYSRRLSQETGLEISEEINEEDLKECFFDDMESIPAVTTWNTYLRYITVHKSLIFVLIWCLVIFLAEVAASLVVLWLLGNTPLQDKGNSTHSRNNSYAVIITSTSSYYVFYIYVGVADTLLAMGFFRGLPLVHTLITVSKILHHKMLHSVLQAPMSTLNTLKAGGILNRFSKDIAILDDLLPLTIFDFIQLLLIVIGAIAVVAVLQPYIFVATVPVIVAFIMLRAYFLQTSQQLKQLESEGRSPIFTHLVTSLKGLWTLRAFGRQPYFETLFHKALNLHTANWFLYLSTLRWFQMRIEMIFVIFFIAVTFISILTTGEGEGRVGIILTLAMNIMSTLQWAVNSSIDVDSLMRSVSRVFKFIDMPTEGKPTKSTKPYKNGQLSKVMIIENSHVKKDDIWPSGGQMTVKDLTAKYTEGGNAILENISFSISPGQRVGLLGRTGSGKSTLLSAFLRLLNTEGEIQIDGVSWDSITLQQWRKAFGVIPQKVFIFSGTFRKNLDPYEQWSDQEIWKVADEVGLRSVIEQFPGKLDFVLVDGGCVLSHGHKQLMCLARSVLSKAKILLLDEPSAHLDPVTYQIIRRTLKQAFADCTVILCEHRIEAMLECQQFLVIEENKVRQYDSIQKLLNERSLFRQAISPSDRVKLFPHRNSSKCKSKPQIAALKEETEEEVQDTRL
Method in brief: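 Corrector mode: cells treated 18–24 h at 37 °C with compound (25 μM screen, 0–25 μM dose-response), then 10 min forskolin 20 μM + genistein 50 μM. Potentiator mode: 27 °C-rescued cells given forskolin 20 μM + compound (0–25 or 0–50 μM) for 10 min. Initial iodide influx rate from exponential fit of YFP quenching, normalized to background-subtracted initial fluorescence.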

G551D-CFTR = target: T2, G551D-CFTR (Homo sapiens, UniProt P13569, G551D); test: Plate reader assay of G551D-CFTR chloride conductance in FRT cells; settings: in the presence of 20 μM forskolin
T2 construct: expressed in transfected cells; host or cells: Fischer rat thyroid (FRT) epithelial cells, stably transfected
T2 sequence (P13569 whole entry G551D): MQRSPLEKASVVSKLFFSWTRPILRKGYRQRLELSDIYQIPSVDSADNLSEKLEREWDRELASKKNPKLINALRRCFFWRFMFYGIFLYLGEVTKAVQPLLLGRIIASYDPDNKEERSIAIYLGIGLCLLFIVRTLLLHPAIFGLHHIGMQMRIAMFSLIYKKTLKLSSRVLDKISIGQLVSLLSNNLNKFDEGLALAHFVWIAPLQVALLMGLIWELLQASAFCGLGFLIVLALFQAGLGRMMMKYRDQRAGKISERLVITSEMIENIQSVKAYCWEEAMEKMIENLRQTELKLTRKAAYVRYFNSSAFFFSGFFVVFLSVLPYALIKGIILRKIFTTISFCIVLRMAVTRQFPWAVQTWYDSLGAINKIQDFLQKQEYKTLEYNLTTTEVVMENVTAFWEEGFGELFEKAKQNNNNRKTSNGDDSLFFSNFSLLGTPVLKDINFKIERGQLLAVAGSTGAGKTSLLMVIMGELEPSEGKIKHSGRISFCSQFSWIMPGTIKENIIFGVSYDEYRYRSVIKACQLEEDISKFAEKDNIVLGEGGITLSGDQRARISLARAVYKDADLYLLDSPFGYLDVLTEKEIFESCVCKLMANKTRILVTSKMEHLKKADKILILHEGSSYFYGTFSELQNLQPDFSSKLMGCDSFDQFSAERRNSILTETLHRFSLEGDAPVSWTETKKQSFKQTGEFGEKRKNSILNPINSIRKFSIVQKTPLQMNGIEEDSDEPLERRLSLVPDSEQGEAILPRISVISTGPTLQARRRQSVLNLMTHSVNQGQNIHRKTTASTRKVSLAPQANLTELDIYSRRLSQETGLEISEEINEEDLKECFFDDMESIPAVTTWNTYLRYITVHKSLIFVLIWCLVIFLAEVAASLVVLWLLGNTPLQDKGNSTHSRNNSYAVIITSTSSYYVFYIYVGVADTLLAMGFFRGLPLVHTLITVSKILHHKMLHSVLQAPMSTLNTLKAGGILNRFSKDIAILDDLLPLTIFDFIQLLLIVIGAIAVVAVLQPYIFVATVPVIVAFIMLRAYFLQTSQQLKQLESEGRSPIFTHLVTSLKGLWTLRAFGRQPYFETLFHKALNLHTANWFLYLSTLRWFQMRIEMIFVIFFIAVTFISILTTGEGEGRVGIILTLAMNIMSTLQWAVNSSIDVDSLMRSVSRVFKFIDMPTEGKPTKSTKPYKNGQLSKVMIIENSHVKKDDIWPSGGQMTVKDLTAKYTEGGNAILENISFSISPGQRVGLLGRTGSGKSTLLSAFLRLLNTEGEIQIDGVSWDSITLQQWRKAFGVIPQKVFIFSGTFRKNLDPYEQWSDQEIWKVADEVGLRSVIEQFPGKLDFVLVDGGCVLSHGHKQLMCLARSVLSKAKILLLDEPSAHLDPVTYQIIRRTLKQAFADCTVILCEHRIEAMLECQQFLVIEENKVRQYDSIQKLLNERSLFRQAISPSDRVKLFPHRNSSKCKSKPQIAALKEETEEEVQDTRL
Description: Potentiator studies were also performed in FRT cells expressing G551D-CFTR, a CF-causing CFTR mutation with defective channel gating but not plasma membrane trafficking. […] Where indicated, genistein (100 μM) and CFTRinh-172 (10 μM) were added. Graphs are representative of 3 sets of measurements. […] Measurements were made in the presence of 20 μM forskolin.
(§1) Representative fluorescence quenching curves (FIG. 6B (top)) shown with deduced Compound 22 and genistein concentration dependence (FIG. 6B (bottom), SEM, n=4). Fluorescence plate reader assays in FIG. 6B confirmed that Compound 22 activated G551D-CFTR in the presence of forskolin, with lower maximal efficacy than genistein.

ΔF508-CFTR [2] = target: T1, ΔF508-CFTR; test: Potentiator assay by YFP/iodide fluorescence quenching in ΔF508-CFTR expressing A549 cells
Description: as §1
(§2) To test whether Compound 22 is active in a different cell background, potentiator and corrector assays were performed in ΔF508-CFTR transfected A549 cells, which are of human lung epithelial origin. […] Apparent EC50 for Compound 22 potentiator activity was about 8 μM (FIG. 6B). […] (FIG. 6C, top). Compound 22 was further tested for corrector activity in A549 cells under the low-temperature synergy condition; however, DF508-CFTR was fully activated by forskolin ([…]) and genistein ([…]) in this cell model (FIG. 6C, bottom).

ΔF508-CFTR [3] = target: T1, ΔF508-CFTR; test: Corrector assay by YFP/iodide fluorescence quenching in ΔF508-CFTR expressing A549 cells; settings: 24 h at 37° C.
Description: FIGS. 6A and 6B show graphs of Compound 22 activity in G551D-CFTR expressing FRT cells and DF508-CFTR expressing […] cells, according to embodiments of the present disclosure. […] (top) or 27° C. (bottom) for 24 h prior to iodide influx measurement, according to embodiments of the present disclosure. Graphs are representative of 3 sets of measurements.
as §2

COc1cccc(C(=O)NCCNc2nc3cc(C)cc(C)c3cc2C#N)c1 [Compound 22, N-(2-((3-Cyano-5,7-dimethylquinolin-2-yl)amino)ethyl)-3-methoxybenzamide]
iodide influx after incubation at 27° C. (ΔF508-CFTR [1]; Compound 22 (20 µM) or Corr-4a (10 µM), 24 h, 27° C., vs low-temperature rescue control): substantially increased iodide influx | iodide influx after incubation at 37° C. (ΔF508-CFTR [1]; Compound 22 (20 µM) or Corr-4a (10 µM), 24 h, 37° C., with genistein): increased iodide influx | corrector and potentiator activities, in words (ΔF508-CFTR [1]; concentration-dependence in corrector and potentiator I− influx assays (FIG. 2, FIG. 7)): both corrector and potentiator activities | additivity of corrector action with Corr-4a (iodide influx) (ΔF508-CFTR [1]; maximal concentrations of Compound 22 and Corr-4a, alone or in combination): significant additivity | maximum efficacy of G551D-CFTR activation (G551D-CFTR): lower than that of genistein | EC50 (G551D-CFTR; read-out: Apparent EC50 for activation of G551-CFTR): ~5 µM | potentiator activity in A549 cells, in words (ΔF508-CFTR [2]): comparable to that in FRT cells | EC50 (ΔF508-CFTR [2]; A549 cells, read-out: Apparent EC50 for potentiator activity): ~8 µM | corrector activity in A549 cells, in words (ΔF508-CFTR [3]): little corrector activity compared to Corr-4a
